In US20240382557A1, “INHIBITION OF TUMOR NECROSIS FACTOR, PRO-INFLAMMATORY CYTOKINES AND OTHER INFLAMMATORY RESPONSE MEDIATORS” (Allegro Pharmaceuticals, LLC, priority 2021, published 2024):
Where a SMILES comes first, the peptide text is derived from it. [ ]: non-standard residue; d: D form. Cya = N[C@@H](CS(=O)(=O)O)C(=O)O

How the values were obtained:
[1] = system: Human umbilical vein endothelial cells (HUVEC); assay: RNA-seq gene expression in HUVEC treated with hypoxia and cytokines; format: cell-based
Source text: Purpose: A chronic pro-inflammatory condition is associated with many ocular diseases, including DED, AMD, and DR. During this process, tissue resident and peripheral immune cells are activated and contribute to formation of a cytotoxic inflammatory state that causes tissue damage and vision loss. In this study, RNA-seq was used to unbiasedly identify the genes regulated by risuteganib treatment in human endothelial cells exposed to hypoxia and cytokines. Analysis of the specific subset of genes regulated by risuteganib enables identification of biological processes and pathways modulated by the oligopeptide.
Methods: Human umbilical vein endothelial cells (HUVEC) were used between passage 3 to 5. All cells were grown at 3% O2 to stimulate endothelial cells into a more angiogenic state. Cells were divided into four treatment groups: control, cytokines for 48 hours, 500 uM risuteganib for 24 hours, and cytokines for 48 hours with 500 uM risuteganib for 24 hours. Cytokine treatment contains both human TNF-a and IL-1b at 1 ng/ml at final concentration. After exposure, cells were collected and their total RNA isolated for RNA-seq. The generated reads were then aligned to human reference genome/transcriptome and gene expression quantified for differential expression analysis and fold change calculation. The list of regulated genes was then used to identify biological processes and pathways that are regulated after risuteganib exposure with cytokine exposure.

[2] = Intravenous infusion to dogs, toxicity; format: in vivo; details: 1.0 mg/kg, 5.0 mg/kg and 8.0 mg/kg
Protocol: The peptides disclosed herein may be administered at any effective dosages, as a single dose or multiple doses, and by any suitable routes of administration. For some systemic treatments, administration by injection or intravenous infusion may be preferable. […] Accordingly, in at least some applications, risuteganib may be administered, for example, by intravenous infusion at a dosage ranging from 1 mg/kg to 8 mg/kg. Other dosage levels and other routes of administration may also be suitable and effective.

[3] = 3% O2, 500 uM risuteganib for 24 hours

## C[C@@H](O)[C@H](NC(=O)[C@H](CS(=O)(=O)O)NC(=O)CNC(=O)[C@H](CCCNC(=N)N)NC(=O)CN)C(=O)N1CCC[C@H]1C(=O)O [Risuteganib, Glycyl-L-arginylglycyl-3-sulfo-L-alanyl-L-threonyl-L-proline] (H-GRG[Cya]TP-OH)
[1]; [3]
  CCL2 Mean Expression Rate (Normalized as Fraction Control): 0.8696
  CCL20 Mean Expression Rate (Normalized as Fraction Control): 0.6328
  CFH Mean Expression Rate (Normalized as Fraction Control): 0.9706
  CXCL5 Mean Expression Rate (Normalized as Fraction Control): 1.166
  CXCL6 Mean Expression Rate (Normalized as Fraction Control): 0.9699
  IL6 Mean Expression Rate (Normalized as Fraction Control): 0.9982
  IL7R Mean Expression Rate (Normalized as Fraction Control): 1.036
  SELE Mean Expression Rate (Normalized as Fraction Control): 0.7022
  TNFAIP3 Mean Expression Rate (Normalized as Fraction Control): 0.946
  TNFAIP6 Mean Expression Rate (Normalized as Fraction Control): 0
  TNFRSF11B Mean Expression Rate (Normalized as Fraction Control): 0.8931
[1]; 342/403 genes
  genes regulated by both risuteganib and cytokines that are regulated in opposite directions: 85%
[1]; cytokine-activated condition
  reversing the transcriptome changes associated with cytokine treatment (Pearson's r): −0.267
[1]; incl. cytokine-cytokine receptor interaction, TNF signaling, IL-17 signaling
  number of pathways down-regulated by risuteganib (pathway analysis): 10
[2]
  toxicity or side effects: without significant toxicity or side effects
